What was measured:
[1] = tested on: cartilage tissue (articular cartilage, distal end of a femur); assay: Immersion of a distal end of a femur of a normal mouse in a cartilage tissue visualization reagent solution, ex vivo fluorescence microscopy; conditions: room temperature, 1 hour, GFP filter; for staining of cartilage (fluorescence signal, FIG. 1): 0.1 mM solution in saline containing 25% ethanol; for staining of cartilage (fluorescence signal, FIG. 2): 0.1 mM solution in saline
Experimental: Two normal C57B6/J strain mouse (8 week old, female) were prepared. The animals were euthanized by ether deep anesthesia and a distal end of a femur was excised. The sample was immersed in 100 μL of a 0.1 mM lysine oligomer derivative solution at room temperature for 1 hour. After 1 hour, the sample was washed twice with buffered saline. This was embedded in 4% CMC compound, frozen in hexane/liquid nitrogen, and cut into thin slices with a thickness of 7 μm using a tungsten carbide blade TC-65 (Leica) for a hard tissue slice and Cryofilm (Leica) in a cryostat without decalcification. The slice was thawed at room temperature for 10 sec, immersed in 100% ethanol for about 30 sec, stored in 4% paraformaldehyde (PFA) for a while, washed with tap water, and then subjected to fluorescence microscopy. An optical filer was a GFP filter. A lysine peptide was labeled with a fluorescence agent NBD, so that its signal was detected.
Here, a solvent of the solution of a lysine oligomer derivative was saline containing 25% ethanol. FIG. 1 is an enlarged image of an articular cartilage area in a sagittal plane of a knee joint in a distal end of a femur. The broken line indicates a tide-mark which is a boundary plane between a cartilage and a calcified cartilage layer.
Here, a solvent of the solution of a lysine oligomer derivative was saline. FIG. 2 is an enlarged image of an articular cartilage area in a sagittal plane of a knee joint in a distal end of a femur. […] For any of compounds 26 to 29, staining of a cartilage tissue was observed. However, staining of compound 26 containing only one lysine unit was slight. […] The white (green in a color photo) regions in the cartilage layer correspond to a part stained by a compound. Some of the circular regions (blue in a color photo) correspond to nuclear stain parts by Hoechst, which were also observed in the calcified layer.

Compound | melting point | staining of cartilage (fluorescence signal, FIG. 1) [1] | staining of cartilage (fluorescence signal, FIG. 2) [1]
N=C(N)NCCNc1c(I)cc(C(=O)NCCCC[C@H](NC(=O)c2cc(I)c(NCCNC(=N)N)c(I)c2)C(=O)NCCCC[C@H](NC(=O)c2cc(I)c(NCCNC(=N)N)c(I)c2)C(=O)NCCCC[C@H](NC(=O)c2cc(I)c(NCCNC(=N)N)c(I)c2)C(=O)NCCNc2ccc([N+](=O)[O-])c3nonc23)cc1I [Compound 42] | 189.4 to 191.5 °C | Staining was observed in the cartilage tissue | 
NCCCC[C@H](N)C(=O)NCCNc1ccc([N+](=O)[O-])c2nonc12 [Compound 26] | 151.4 to 153.9 °C |  | slight
NCCCC[C@H](N)C(=O)NCCCC[C@H](N)C(=O)NCCCC[C@H](N)C(=O)NCCCC[C@H](N)C(=O)NCCCC[C@H](N)C(=O)NCCNc1ccc([N+](=O)[O-])c2nonc12 [Compound 29] |  |  | further strongly stained
NCCCC[C@H](N)C(=O)NCCCC[C@H](N)C(=O)NCCCC[C@H](N)C(=O)NCCNc1ccc([N+](=O)[O-])c2nonc12 [Compound 27] | 183.3 to 184.7 °C | Staining was observed in the cartilage tissue | adequately stained
NCCCC[C@H](N)C(=O)NCCCC[C@H](N)C(=O)NCCCC[C@H](N)C(=O)NCCCC[C@H](N)C(=O)NCCNc1ccc([N+](=O)[O-])c2nonc12 [Compound 28] |  |  | further strongly stained
NCCNc1c(I)cc(C(=O)NCCCC[C@H](NC(=O)c2cc(I)c(NCCN)c(I)c2)C(=O)NCCCC[C@H](NC(=O)c2cc(I)c(NCCN)c(I)c2)C(=O)NCCCC[C@H](NC(=O)c2cc(I)c(NCCN)c(I)c2)C(=O)NCCNc2ccc([N+](=O)[O-])c3nonc23)cc1I [Compound 43] | 192.9 to 195.7 °C | staining was confined to the surface tissue | 
